Tests used:
Test in all cases: KINOMEscan competition binding
Details in all cases: compound 10.0 µM
SRMS (human) = SRMS (human) (UniProt Q9H3Y6)
ADCK4 (human) = ADCK4 (human) (UniProt Q96D53)
LTK (human) = LTK (human) (UniProt P29376)
PTK2B (human) = PTK2B (human) (UniProt Q14289)
FLT4 (human) = FLT4 (human) (UniProt P35916)
MAPK12 (human) = MAPK12 (human) (UniProt P53778)
MLTK (human) = MLTK (human) (UniProt Q9NYL2)
MAP4K4 (human) = MAP4K4 (human) (UniProt O95819)
TNK2 (human) = TNK2 (human) (UniProt Q07912)
HCK (human) = HCK (human) (UniProt P08631)
ZAP70 (human) = ZAP70 (human) (UniProt P43403)
DCLK3 (human) = DCLK3 (human) (UniProt Q9C098)
MST1R (human) = MST1R (human) (UniProt Q04912)
MST1R (human), sequence (Q04912 whole entry, looked up): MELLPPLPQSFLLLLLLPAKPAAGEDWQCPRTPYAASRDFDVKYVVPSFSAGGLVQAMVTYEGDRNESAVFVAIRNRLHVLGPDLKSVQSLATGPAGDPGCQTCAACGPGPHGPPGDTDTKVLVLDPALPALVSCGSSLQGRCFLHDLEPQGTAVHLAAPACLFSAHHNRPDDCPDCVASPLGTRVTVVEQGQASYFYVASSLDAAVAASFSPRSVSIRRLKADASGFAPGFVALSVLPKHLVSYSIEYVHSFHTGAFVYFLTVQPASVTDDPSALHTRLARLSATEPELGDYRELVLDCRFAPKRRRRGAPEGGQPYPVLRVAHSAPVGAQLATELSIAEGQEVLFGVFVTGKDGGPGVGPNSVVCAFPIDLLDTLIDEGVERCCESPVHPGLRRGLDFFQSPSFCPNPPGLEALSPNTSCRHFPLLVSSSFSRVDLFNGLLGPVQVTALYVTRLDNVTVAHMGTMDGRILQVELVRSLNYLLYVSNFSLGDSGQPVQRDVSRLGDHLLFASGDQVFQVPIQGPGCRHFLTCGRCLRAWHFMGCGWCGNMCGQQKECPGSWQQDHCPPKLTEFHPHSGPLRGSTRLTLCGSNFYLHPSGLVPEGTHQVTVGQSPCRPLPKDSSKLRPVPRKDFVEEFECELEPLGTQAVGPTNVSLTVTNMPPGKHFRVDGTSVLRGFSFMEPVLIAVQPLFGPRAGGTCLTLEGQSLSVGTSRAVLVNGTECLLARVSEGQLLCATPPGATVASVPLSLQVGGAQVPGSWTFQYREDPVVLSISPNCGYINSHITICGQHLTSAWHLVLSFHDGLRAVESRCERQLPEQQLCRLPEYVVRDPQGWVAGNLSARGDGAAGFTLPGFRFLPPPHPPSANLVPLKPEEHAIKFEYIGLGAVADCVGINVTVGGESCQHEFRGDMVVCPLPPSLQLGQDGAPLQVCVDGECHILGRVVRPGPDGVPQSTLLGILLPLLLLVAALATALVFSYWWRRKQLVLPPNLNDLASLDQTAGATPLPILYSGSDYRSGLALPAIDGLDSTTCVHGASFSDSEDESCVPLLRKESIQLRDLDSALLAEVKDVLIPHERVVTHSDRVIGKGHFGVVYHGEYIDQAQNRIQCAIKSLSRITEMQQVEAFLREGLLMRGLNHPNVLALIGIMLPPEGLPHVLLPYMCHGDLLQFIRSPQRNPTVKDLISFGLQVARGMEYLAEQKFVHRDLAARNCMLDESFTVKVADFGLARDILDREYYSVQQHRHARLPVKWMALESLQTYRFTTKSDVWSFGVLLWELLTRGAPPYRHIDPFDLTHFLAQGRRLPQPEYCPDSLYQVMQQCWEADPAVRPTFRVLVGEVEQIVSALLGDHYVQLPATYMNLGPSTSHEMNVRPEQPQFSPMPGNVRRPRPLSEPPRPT

CAMK4 (human) = CAMK4 (human) (UniProt Q16566)
PHKG2 (human) = PHKG2 (human) (UniProt P15735)
PIM3 (human) = PIM3 (human) (UniProt Q86V86)
PTK6 (human) = PTK6 (human) (UniProt Q13882)
CDC2L2 (human) = CDC2L2 (human) (UniProt Q9UQ88)
AURKA (human) = AURKA (human) (UniProt O14965)
AURKA (human), sequence (O14965 whole entry, looked up): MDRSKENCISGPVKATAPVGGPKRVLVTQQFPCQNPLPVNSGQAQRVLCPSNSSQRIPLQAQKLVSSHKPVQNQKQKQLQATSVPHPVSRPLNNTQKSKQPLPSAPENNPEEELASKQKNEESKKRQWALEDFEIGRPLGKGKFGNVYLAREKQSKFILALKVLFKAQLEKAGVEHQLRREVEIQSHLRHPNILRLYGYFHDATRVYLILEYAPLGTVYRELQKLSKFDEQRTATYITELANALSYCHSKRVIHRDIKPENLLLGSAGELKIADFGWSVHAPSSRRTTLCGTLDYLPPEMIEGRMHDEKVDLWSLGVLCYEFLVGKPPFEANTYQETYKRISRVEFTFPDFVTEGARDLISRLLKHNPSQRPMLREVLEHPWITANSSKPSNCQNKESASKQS

MAPK1 (human) = MAPK1 (human) (UniProt P28482)
CHEK1 (human) = CHEK1 (human) (UniProt O14757)
PAK7 (human) = PAK7 (human) (UniProt Q9P286)
CSNK1A1L (human) = CSNK1A1L (human) (UniProt Q8N752)
MAPK11 (human) = MAPK11 (human) (UniProt Q15759)
EPHA1 (human) = EPHA1 (human) (UniProt P21709)
EPHA1 (human), sequence (P21709 whole entry, looked up): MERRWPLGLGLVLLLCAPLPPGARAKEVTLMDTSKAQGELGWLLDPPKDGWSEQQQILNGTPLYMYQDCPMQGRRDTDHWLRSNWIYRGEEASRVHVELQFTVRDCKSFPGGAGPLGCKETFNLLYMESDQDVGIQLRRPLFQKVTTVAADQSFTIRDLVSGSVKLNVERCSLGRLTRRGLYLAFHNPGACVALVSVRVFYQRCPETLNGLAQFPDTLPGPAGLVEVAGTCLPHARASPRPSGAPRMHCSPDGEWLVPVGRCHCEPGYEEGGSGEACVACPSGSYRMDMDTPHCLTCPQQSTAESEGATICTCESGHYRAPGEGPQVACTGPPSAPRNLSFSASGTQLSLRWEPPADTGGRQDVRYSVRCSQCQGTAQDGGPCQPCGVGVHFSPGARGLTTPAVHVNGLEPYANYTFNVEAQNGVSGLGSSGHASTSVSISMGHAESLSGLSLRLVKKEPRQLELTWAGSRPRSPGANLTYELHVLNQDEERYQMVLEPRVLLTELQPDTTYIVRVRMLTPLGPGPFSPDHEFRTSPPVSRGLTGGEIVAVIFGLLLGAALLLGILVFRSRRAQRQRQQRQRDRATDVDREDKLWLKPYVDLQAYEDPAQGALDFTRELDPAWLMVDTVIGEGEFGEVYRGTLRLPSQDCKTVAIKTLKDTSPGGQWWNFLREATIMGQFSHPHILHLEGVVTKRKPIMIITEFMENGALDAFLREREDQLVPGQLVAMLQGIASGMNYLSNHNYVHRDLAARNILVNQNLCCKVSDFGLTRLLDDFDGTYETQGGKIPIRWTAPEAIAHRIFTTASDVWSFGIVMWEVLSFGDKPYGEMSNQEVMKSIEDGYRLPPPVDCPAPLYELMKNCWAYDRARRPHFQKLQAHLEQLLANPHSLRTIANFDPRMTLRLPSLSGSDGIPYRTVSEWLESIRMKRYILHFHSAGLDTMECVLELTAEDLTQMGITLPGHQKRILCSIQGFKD

CAMK2D (human) = CAMK2D (human) (UniProt Q13557)
IGF1R (human) = IGF1R (human) (UniProt P08069)
IGF1R (human), sequence (P08069 whole entry, looked up): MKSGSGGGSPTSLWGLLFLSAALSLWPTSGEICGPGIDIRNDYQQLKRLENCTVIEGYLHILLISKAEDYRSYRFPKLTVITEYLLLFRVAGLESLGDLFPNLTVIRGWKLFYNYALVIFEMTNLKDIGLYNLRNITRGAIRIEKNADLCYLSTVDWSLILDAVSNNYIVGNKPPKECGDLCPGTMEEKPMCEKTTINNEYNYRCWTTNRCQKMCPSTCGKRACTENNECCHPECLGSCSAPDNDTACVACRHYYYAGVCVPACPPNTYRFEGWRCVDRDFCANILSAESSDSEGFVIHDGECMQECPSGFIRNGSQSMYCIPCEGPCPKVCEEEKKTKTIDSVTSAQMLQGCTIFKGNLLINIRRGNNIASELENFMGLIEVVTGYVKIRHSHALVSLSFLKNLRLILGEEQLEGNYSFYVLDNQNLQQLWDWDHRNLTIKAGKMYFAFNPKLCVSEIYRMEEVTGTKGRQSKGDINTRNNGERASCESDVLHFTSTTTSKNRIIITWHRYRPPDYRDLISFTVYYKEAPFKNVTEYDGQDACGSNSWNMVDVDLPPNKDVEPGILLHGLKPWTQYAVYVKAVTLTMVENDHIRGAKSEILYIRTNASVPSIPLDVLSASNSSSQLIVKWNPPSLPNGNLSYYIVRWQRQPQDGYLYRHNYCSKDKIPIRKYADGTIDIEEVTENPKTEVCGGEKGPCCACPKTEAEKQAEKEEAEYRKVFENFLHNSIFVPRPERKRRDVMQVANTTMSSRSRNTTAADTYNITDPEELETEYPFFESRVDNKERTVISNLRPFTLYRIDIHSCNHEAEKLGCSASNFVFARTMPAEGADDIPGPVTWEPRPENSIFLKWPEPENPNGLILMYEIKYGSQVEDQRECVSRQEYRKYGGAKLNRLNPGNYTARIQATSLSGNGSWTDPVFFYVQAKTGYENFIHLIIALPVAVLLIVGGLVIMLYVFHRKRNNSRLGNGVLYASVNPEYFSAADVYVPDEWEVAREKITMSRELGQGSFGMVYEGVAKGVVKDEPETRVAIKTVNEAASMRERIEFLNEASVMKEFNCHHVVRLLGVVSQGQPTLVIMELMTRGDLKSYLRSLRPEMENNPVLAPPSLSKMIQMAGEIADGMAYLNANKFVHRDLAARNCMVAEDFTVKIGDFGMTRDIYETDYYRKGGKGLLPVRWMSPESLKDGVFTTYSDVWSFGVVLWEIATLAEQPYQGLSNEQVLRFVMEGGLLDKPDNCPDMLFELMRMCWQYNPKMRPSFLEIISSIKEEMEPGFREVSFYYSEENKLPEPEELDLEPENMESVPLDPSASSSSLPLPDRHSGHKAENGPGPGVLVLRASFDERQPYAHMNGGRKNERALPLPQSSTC

PRKAA1 (human) = PRKAA1 (human) (UniProt Q13131)
MAPK10 (human) = MAPK10 (human) (UniProt P53779)
TNIK (human) = TNIK (human) (UniProt Q9UKE5)
STK17B (human) = STK17B (human) (UniProt O94768)
MAPK8 (human) = MAPK8 (human) (UniProt P45983)
INSRR (human) = INSRR (human) (UniProt P14616)
CHUK (human) = CHUK (human) (UniProt O15111)
CHUK (human), sequence (O15111 whole entry, looked up): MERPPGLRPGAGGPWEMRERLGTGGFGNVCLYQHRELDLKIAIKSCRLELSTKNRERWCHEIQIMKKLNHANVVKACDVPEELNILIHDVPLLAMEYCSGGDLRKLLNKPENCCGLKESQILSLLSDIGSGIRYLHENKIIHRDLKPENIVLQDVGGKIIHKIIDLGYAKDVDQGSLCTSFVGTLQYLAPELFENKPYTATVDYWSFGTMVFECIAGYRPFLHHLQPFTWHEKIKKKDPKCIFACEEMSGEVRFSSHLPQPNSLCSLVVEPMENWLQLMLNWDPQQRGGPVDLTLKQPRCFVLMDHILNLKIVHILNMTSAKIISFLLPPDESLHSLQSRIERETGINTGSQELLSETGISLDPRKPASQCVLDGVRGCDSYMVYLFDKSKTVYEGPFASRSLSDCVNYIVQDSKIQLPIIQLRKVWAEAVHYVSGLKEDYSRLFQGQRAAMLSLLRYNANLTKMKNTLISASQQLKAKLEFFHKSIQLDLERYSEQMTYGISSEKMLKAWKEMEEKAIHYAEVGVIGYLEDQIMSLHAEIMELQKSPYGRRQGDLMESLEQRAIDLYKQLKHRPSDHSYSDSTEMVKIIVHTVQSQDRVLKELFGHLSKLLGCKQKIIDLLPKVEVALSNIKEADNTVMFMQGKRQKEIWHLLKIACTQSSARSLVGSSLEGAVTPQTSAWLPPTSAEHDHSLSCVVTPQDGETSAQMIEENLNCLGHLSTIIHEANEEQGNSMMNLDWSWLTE

STK32C (human) = STK32C (human) (UniProt Q86UX6)
SRPK2 (human) = SRPK2 (human) (UniProt P78362)
PAK3 (human) = PAK3 (human) (UniProt O75914)
MYLK2 (human) = MYLK2 (human) (UniProt Q9H1R3)
MINK1 (human) = MINK1 (human) (UniProt Q8N4C8)
TAOK1 (human) = TAOK1 (human) (UniProt Q7L7X3)

Nc1ccc(-c2ccc3ncc4ccc(=O)n(-c5cccc(C(F)(F)F)c5)c4c3c2)cn1
kinase still bound, per cent of control (SRMS (human)): 88%
kinase still bound, per cent of control (ADCK4 (human)): 77%
kinase still bound, per cent of control (LTK (human)): 100%
kinase still bound, per cent of control (PTK2B (human)): 86%
kinase still bound, per cent of control (FLT4 (human)): 85%
kinase still bound, per cent of control (MAPK12 (human)): 87%
kinase still bound, per cent of control (MLTK (human)): 65%
kinase still bound, per cent of control (MAP4K4 (human)): 71%
kinase still bound, per cent of control (TNK2 (human)): 100%
kinase still bound, per cent of control (HCK (human)): 100%
kinase still bound, per cent of control (ZAP70 (human)): 100%
kinase still bound, per cent of control (DCLK3 (human)): 100%
kinase still bound, per cent of control (MST1R (human)): 90%
kinase still bound, per cent of control (CAMK4 (human)): 100%
kinase still bound, per cent of control (PHKG2 (human)): 100%
kinase still bound, per cent of control (PIM3 (human)): 100%
kinase still bound, per cent of control (PTK6 (human)): 100%
kinase still bound, per cent of control (CDC2L2 (human)): 98%
kinase still bound, per cent of control (AURKA (human)): 100%
kinase still bound, per cent of control (MAPK1 (human)): 100%
kinase still bound, per cent of control (CHEK1 (human)): 86%
kinase still bound, per cent of control (PAK7 (human)): 69%
kinase still bound, per cent of control (CSNK1A1L (human)): 89%
kinase still bound, per cent of control (MAPK11 (human)): 83%
kinase still bound, per cent of control (EPHA1 (human)): 93%
kinase still bound, per cent of control (CAMK2D (human)): 85%
kinase still bound, per cent of control (IGF1R (human)): 100%
kinase still bound, per cent of control (PRKAA1 (human)): 100%
kinase still bound, per cent of control (MAPK10 (human)): 78%
kinase still bound, per cent of control (TNIK (human)): 68%
kinase still bound, per cent of control (STK17B (human)): 89%
kinase still bound, per cent of control (MAPK8 (human)): 60%
kinase still bound, per cent of control (INSRR (human)): 100%
kinase still bound, per cent of control (CHUK (human)): 55%
kinase still bound, per cent of control (STK32C (human)): 100%
kinase still bound, per cent of control (SRPK2 (human)): 100%
kinase still bound, per cent of control (PAK3 (human)): 100%
kinase still bound, per cent of control (MYLK2 (human)): 100%
kinase still bound, per cent of control (MINK1 (human)): 56%
kinase still bound, per cent of control (TAOK1 (human)): 62%

O=C(O)c1ccc(Nc2ncc3c(n2)-c2ccc(Cl)cc2C(c2c(F)cccc2F)=NC3)cc1
kinase still bound, per cent of control (SRMS (human)): 54%
kinase still bound, per cent of control (ADCK4 (human)): 95%
kinase still bound, per cent of control (LTK (human)): 62%
kinase still bound, per cent of control (FLT4 (human)): 18%
kinase still bound, per cent of control (MAPK12 (human)): 97%
kinase still bound, per cent of control (MLTK (human)): 93%
kinase still bound, per cent of control (MAP4K4 (human)): 86%
kinase still bound, per cent of control (TNK2 (human)): 46%
kinase still bound, per cent of control (ZAP70 (human)): 100%
kinase still bound, per cent of control (DCLK3 (human)): 92%
kinase still bound, per cent of control (MST1R (human)): 92%
kinase still bound, per cent of control (CAMK4 (human)): 66%
kinase still bound, per cent of control (PHKG2 (human)): 73%
kinase still bound, per cent of control (PIM3 (human)): 42%
kinase still bound, per cent of control (PTK6 (human)): 77%
kinase still bound, per cent of control (CDC2L2 (human)): 100%
kinase still bound, per cent of control (AURKA (human)): 0.5%
kinase still bound, per cent of control (MAPK1 (human)): 100%
kinase still bound, per cent of control (CHEK1 (human)): 91%
kinase still bound, per cent of control (PAK7 (human)): 93%
kinase still bound, per cent of control (CSNK1A1L (human)): 97%
kinase still bound, per cent of control (MAPK11 (human)): 99%
kinase still bound, per cent of control (EPHA1 (human)): 15%
kinase still bound, per cent of control (CAMK2D (human)): 95%
kinase still bound, per cent of control (IGF1R (human)): 73%
kinase still bound, per cent of control (PRKAA1 (human)): 38%
kinase still bound, per cent of control (MAPK10 (human)): 100%
kinase still bound, per cent of control (TNIK (human)): 61%
kinase still bound, per cent of control (STK17B (human)): 8.6%
kinase still bound, per cent of control (MAPK8 (human)): 100%
kinase still bound, per cent of control (INSRR (human)): 100%
kinase still bound, per cent of control (CHUK (human)): 100%
kinase still bound, per cent of control (STK32C (human)): 50%
kinase still bound, per cent of control (SRPK2 (human)): 80%
kinase still bound, per cent of control (PAK3 (human)): 52%
kinase still bound, per cent of control (MYLK2 (human)): 100%
kinase still bound, per cent of control (MINK1 (human)): 100%
kinase still bound, per cent of control (TAOK1 (human)): 71%

N#Cc1c(NC(=O)c2cccc3ccccc23)sc2c1CCCC2
kinase still bound, per cent of control (SRMS (human)): 84%
kinase still bound, per cent of control (ADCK4 (human)): 100%
kinase still bound, per cent of control (LTK (human)): 90%
kinase still bound, per cent of control (PTK2B (human)): 79%
kinase still bound, per cent of control (FLT4 (human)): 91%
kinase still bound, per cent of control (MAPK12 (human)): 82%
kinase still bound, per cent of control (MLTK (human)): 87%
kinase still bound, per cent of control (MAP4K4 (human)): 66%
kinase still bound, per cent of control (TNK2 (human)): 77%
kinase still bound, per cent of control (HCK (human)): 92%
kinase still bound, per cent of control (ZAP70 (human)): 87%
kinase still bound, per cent of control (DCLK3 (human)): 100%
kinase still bound, per cent of control (MST1R (human)): 95%
kinase still bound, per cent of control (CAMK4 (human)): 100%
kinase still bound, per cent of control (PHKG2 (human)): 83%
kinase still bound, per cent of control (PIM3 (human)): 100%
kinase still bound, per cent of control (PTK6 (human)): 46%
kinase still bound, per cent of control (CDC2L2 (human)): 100%
kinase still bound, per cent of control (AURKA (human)): 100%
kinase still bound, per cent of control (MAPK1 (human)): 89%
kinase still bound, per cent of control (CHEK1 (human)): 82%
kinase still bound, per cent of control (PAK7 (human)): 100%
kinase still bound, per cent of control (CSNK1A1L (human)): 66%
kinase still bound, per cent of control (MAPK11 (human)): 100%
kinase still bound, per cent of control (EPHA1 (human)): 85%
kinase still bound, per cent of control (CAMK2D (human)): 93%
kinase still bound, per cent of control (IGF1R (human)): 76%
kinase still bound, per cent of control (PRKAA1 (human)): 80%
kinase still bound, per cent of control (MAPK10 (human)): 0.95%
kinase still bound, per cent of control (TNIK (human)): 100%
kinase still bound, per cent of control (STK17B (human)): 100%
kinase still bound, per cent of control (MAPK8 (human)): 60%
kinase still bound, per cent of control (INSRR (human)): 100%
kinase still bound, per cent of control (STK32C (human)): 97%
kinase still bound, per cent of control (SRPK2 (human)): 100%
kinase still bound, per cent of control (PAK3 (human)): 94%
kinase still bound, per cent of control (MYLK2 (human)): 100%
kinase still bound, per cent of control (MINK1 (human)): 95%
kinase still bound, per cent of control (TAOK1 (human)): 100%

Cc1cc([C@@H](C)Nc2ccccc2C(=O)O)c2nc(N3CCOCC3)cc(=O)n2c1
kinase still bound, per cent of control (SRMS (human)): 63%
kinase still bound, per cent of control (ADCK4 (human)): 79%
kinase still bound, per cent of control (LTK (human)): 95%
kinase still bound, per cent of control (PTK2B (human)): 100%
kinase still bound, per cent of control (FLT4 (human)): 95%
kinase still bound, per cent of control (MAPK12 (human)): 94%
kinase still bound, per cent of control (MLTK (human)): 100%
kinase still bound, per cent of control (MAP4K4 (human)): 97%
kinase still bound, per cent of control (TNK2 (human)): 100%
kinase still bound, per cent of control (HCK (human)): 100%
kinase still bound, per cent of control (ZAP70 (human)): 100%
kinase still bound, per cent of control (DCLK3 (human)): 85%
kinase still bound, per cent of control (CAMK4 (human)): 100%
kinase still bound, per cent of control (PHKG2 (human)): 100%
kinase still bound, per cent of control (PIM3 (human)): 100%
kinase still bound, per cent of control (PTK6 (human)): 75%
kinase still bound, per cent of control (CDC2L2 (human)): 100%
kinase still bound, per cent of control (AURKA (human)): 100%
kinase still bound, per cent of control (MAPK1 (human)): 100%
kinase still bound, per cent of control (CHEK1 (human)): 100%
kinase still bound, per cent of control (PAK7 (human)): 99%
kinase still bound, per cent of control (CSNK1A1L (human)): 100%
kinase still bound, per cent of control (MAPK11 (human)): 91%
kinase still bound, per cent of control (EPHA1 (human)): 100%
kinase still bound, per cent of control (CAMK2D (human)): 95%
kinase still bound, per cent of control (IGF1R (human)): 100%
kinase still bound, per cent of control (PRKAA1 (human)): 100%
kinase still bound, per cent of control (MAPK10 (human)): 82%
kinase still bound, per cent of control (TNIK (human)): 98%
kinase still bound, per cent of control (STK17B (human)): 100%
kinase still bound, per cent of control (MAPK8 (human)): 100%
kinase still bound, per cent of control (INSRR (human)): 100%
kinase still bound, per cent of control (CHUK (human)): 100%
kinase still bound, per cent of control (STK32C (human)): 82%
kinase still bound, per cent of control (SRPK2 (human)): 85%
kinase still bound, per cent of control (PAK3 (human)): 98%
kinase still bound, per cent of control (MYLK2 (human)): 100%
kinase still bound, per cent of control (MINK1 (human)): 100%
kinase still bound, per cent of control (TAOK1 (human)): 59%
